The source of these data is patent US8435980B2 (AbbVie Inc., priority 2009, dated 2013).

T1 sequence (O00311 whole entry): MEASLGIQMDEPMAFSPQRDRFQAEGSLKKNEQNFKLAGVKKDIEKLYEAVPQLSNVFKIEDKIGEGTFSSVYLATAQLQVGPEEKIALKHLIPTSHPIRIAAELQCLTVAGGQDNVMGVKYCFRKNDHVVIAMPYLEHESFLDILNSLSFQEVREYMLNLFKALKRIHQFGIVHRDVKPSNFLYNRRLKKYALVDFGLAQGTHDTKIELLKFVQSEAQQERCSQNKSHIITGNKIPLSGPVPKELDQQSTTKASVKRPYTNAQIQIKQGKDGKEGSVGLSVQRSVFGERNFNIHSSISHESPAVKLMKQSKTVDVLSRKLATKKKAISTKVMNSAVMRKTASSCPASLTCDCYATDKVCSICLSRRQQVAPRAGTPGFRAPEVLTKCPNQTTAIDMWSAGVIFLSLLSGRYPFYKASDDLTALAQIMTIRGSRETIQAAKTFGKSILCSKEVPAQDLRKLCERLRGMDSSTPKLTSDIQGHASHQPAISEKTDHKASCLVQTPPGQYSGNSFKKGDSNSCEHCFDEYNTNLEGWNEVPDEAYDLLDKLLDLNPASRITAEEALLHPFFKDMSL
T1 sequence (Q9UBU7 whole entry partner): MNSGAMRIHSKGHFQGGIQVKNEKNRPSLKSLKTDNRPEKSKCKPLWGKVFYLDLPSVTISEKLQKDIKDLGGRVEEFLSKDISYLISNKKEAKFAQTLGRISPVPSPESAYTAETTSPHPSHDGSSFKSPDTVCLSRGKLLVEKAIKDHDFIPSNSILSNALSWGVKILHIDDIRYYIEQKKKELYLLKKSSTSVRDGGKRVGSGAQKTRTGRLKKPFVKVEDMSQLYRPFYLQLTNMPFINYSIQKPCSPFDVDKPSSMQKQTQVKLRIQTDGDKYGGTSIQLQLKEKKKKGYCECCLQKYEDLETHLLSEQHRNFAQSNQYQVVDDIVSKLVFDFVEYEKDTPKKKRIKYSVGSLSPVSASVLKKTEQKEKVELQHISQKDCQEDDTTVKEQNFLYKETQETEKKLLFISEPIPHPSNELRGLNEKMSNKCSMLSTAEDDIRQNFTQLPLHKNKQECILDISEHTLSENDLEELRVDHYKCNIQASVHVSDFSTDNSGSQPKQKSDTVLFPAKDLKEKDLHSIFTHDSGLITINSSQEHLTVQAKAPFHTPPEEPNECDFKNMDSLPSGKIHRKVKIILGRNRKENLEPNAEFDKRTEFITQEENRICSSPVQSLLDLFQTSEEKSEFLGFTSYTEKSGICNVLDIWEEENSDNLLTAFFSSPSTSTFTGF

This test concerns the target T1, Cdc7 (BEV coexpressed huCDC7/DBF4) (Homo sapiens, UniProt O00311).
T1 construct: made in house; host or cells: BEV (baculovirus expression vector) co-expression; insect cells are implied but no cell line is named
Description: Cdc7 enzyme inhibition assay ([33P]ATP, biotinylated peptide substrate, FlashPlate). Format: biochemical. As to conditions: Table 3; enzyme inhibition data (Ki). Here is the method:
Cdc7 (BEV coexpressed huCDC7/DBF4) is prepared internally. Cdc7 assays are conducted as follows with final concentrations as listed. […] Reactions are quenched after 1 hr by the addition of 90 μL stop buffer (50 mM EDTA, 2M NaCl). […] (Ki) for exemplary compounds.
Turning to `C=CCNC(=O)NCCS(=O)(=O)N[C@H]1CC[C@H](Nc2cc(-c3c[nH]c4ncccc34)cc(Cl)n2)CC1` [Example 208, N-(trans-4-{[6-chloro-4-(1H-pyrrolo[2,3-b]pyridin-3-yl)pyridin-2-yl]amino}cyclohexyl)-2-[(prop-2-en-1-ylcarbamoyl)amino}ethanesulfonamide], the Ki is < 10 nM.

Turning to `O=C(N[C@H]1CC[C@H](Nc2cc(-c3c[nH]c4ncccc34)cc(Cl)n2)CC1)C1CN(Cc2cccnc2)C1` [Example 209, N-(trans-4-{[6-chloro-4-(1H-pyrrolo[2,3-b]pyridin-3-yl)pyridin-2-yl]amino}cyclohexyl)-1-(pyridin-3-ylmethyl)azetidine-3-carboxamide], the inhibition constant (Ki) is < 10 nM.

Consider `O=C(N[C@H]1CC[C@H](Nc2cc(-c3c[nH]c4ncccc34)cc(Cl)n2)CC1)C1CN(Cc2ccc(F)cc2F)C1` [Example 210, N-(trans-4-{[6-chloro-4-(1H-pyrrolo[2,3-b]pyridin-3-yl)pyridin-2-yl]amino}cyclohexyl)-1-(2,4-difluorobenzyl)azetidine-3-carboxamide], for which the Ki was < 10 nM.

On to `Cn1ccc(CN2CC(C(=O)N[C@H]3CC[C@H](Nc4cc(-c5c[nH]c6ncccc56)cc(Cl)n4)CC3)C2)n1` [Example 211, N-(trans-4-{[6-chloro-4-(1H-pyrrolo[2,3-b]pyridin-3-yl)pyridin-2-yl]amino}cyclohexyl)-1-[(1-methyl-1H-pyrazol-3-yl)methyl]azetidine-3-carboxamide], for which the Ki was < 10 nM.

In the case of `OCCn1cc(-c2cnc3[nH]cc(-c4cc(Cl)nc(NC5CCCCC5)c4)c3c2)cn1` [Example 212, 2-(4-{3-[2-chloro-6-(cyclohexylamino)pyridin-4-yl]-1H-pyrrolo[2,3-b]pyridin-5-yl}-1H-pyrazol-1-yl)ethanol], the inhibition constant (Ki) was < 10 nM.

`COc1cnc2[nH]cc(-c3cc(Cl)nc(N[C@H]4CC[C@H](N)CC4)c3)c2c1` [Example 213, trans-N-[6-chloro-4-(5-methoxy-1H-pyrrolo[2,3-b]pyridin-3-yl)pyridin-2-yl]cyclohexane-1,4-diamine]: the inhibition constant (Ki) was < 10 nM.

`Clc1cc(-c2c[nH]c3ncc(-c4cccnc4)cc23)cc(NC2CCCCC2)n1` [Example 214, 6-chloro-N-cyclohexyl-4-[5-(pyridin-3-yl)-1H-pyrrolo[2,3-b]pyridin-3-yl]pyridin-2-amine]: the inhibition constant (Ki) is < 10 nM.

For `Clc1cc(-c2c[nH]c3ncc(-c4ccsc4)cc23)cc(NC2CCCCC2)n1` [Example 215, 6-chloro-N-cyclohexyl-4-[5-(thiophen-3-yl)-1H-pyrrolo[2,3-b]pyridin-3-yl]pyridin-2-amine], the Ki is 10 to 100 nM.

Turning to `COc1cnc2[nH]cc(-c3cc(Cl)nc(N[C@H]4CC[C@H](NC(=O)C5CC5)CC4)c3)c2c1` [Example 216, N-(trans-4-{[6-chloro-4-(5-methoxy-1H-pyrrolo[2,3-b]pyridin-3-yl)pyridin-2-yl]amino}cyclohexyl)cyclopropanecarboxamide], the Ki is < 10 nM.

With `COc1cnc2[nH]cc(-c3cc(Cl)nc(N[C@H]4CC[C@H](NC(=O)C5CN(Cc6ccccc6)C5)CC4)c3)c2c1` [Example 217, 1-benzyl-N-(trans-4-{[6-chloro-4-(5-methoxy-1H-pyrrolo[2,3-b]pyridin-3-yl)pyridin-2-yl]amino}cyclohexyl)azetidine-3-carboxamide], the inhibitory constant (Ki) is < 10 nM.

Consider `COc1cnc2[nH]cc(-c3cc(Cl)nc(N[C@H]4CC[C@H](NS(=O)(=O)C5CC5)CC4)c3)c2c1` [Example 218, N-(trans-4-{[6-chloro-4-(5-methoxy-1H-pyrrolo[2,3-b]pyridin-3-yl)pyridin-2-yl]amino}cyclohexyl)cyclopropanesulfonamide], for which the inhibitory constant (Ki) is < 10 nM.

Regarding `COc1cnc2[nH]cc(-c3cc(Cl)nc(N[C@H]4CC[C@H](NS(C)(=O)=O)CC4)c3)c2c1` [Example 220, N-(trans-4-{[6-chloro-4-(5-methoxy-1H-pyrrolo[2,3-b]pyridin-3-yl)pyridin-2-yl]amino}cyclohexyl)methanesulfonamide], the inhibition constant Ki is < 10 nM.

Turning to `CN1CCN(Cc2cccc(-c3cnc4[nH]cc(-c5cc(Cl)nc(NC6CCCCC6)c5)c4c3)c2)CC1` [Example 221, 6-chloro-N-cyclohexyl-4-(5-{3-[(4-methylpiperazin-1-yl)methyl]phenyl}-1H-pyrrolo[2,3-b]pyridin-3-yl)pyridin-2-amine], the inhibition constant (Ki) is < 10 nM.

For `NS(=O)(=O)c1cccc(-c2cnc3[nH]cc(-c4cc(Cl)nc(NC5CCCCC5)c4)c3c2)c1` [Example 222, 3-{3-[2-chloro-6-(cyclohexylamino)pyridin-4-yl]-1H-pyrrolo[2,3-b]pyridin-5-yl}benzenesulfonamide], the inhibition constant (Ki) was < 10 nM.

For the compound `NS(=O)(=O)c1ccc(-c2cnc3[nH]cc(-c4cc(Cl)nc(NC5CCCCC5)c4)c3c2)cc1` [Example 223, 4-{3-[2-chloro-6-(cyclohexylamino)pyridin-4-yl]-1H-pyrrolo[2,3-b]pyridin-5-yl}benzenesulfonamide], the Ki was < 10 nM.

For the compound `CCOc1cnc2[nH]cc(-c3cc(Cl)nc(N[C@H]4CC[C@H](N)CC4)c3)c2c1` [Example 224, trans-N-[6-chloro-4-(5-ethoxy-1H-pyrrolo[2,3-b]pyridin-3-yl)pyridin-2-yl]cyclohexane-1,4-diamine], the Ki was < 10 nM.

`Nc1cnc2[nH]cc(-c3cc(Cl)nc(NC4CCCCC4)c3)c2c1` [Example 225, 3-[2-chloro-6-(cyclohexylamino)pyridin-4-yl]-1H-pyrrolo[2,3-b]pyridin-5-amine]: the inhibitory constant (Ki) is < 10 nM.

As for `CC(=O)Nc1cnc2[nH]cc(-c3cc(Cl)nc(NC4CCCCC4)c3)c2c1` [Example 226, N-{3-[2-chloro-6-(cyclohexylamino)pyridin-4-yl]-1H-pyrrolo[2,3-b]pyridin-5-yl}acetamide], the Ki is < 10 nM.

Turning to `CNCC(=O)N[C@H]1CC[C@H](Nc2cc(-c3c[nH]c4ncc(OC)cc34)cc(Cl)n2)CC1` [Example 227, N-(trans-4-{[6-chloro-4-(5-methoxy-1H-pyrrolo[2,3-b]pyridin-3-yl)pyridin-2-yl]amino}cyclohexyl)-N^2-methylglycinamide], the inhibition constant Ki is < 10 nM.

On to `COc1cnc2[nH]cc(-c3cc(Cl)nc(N[C@H]4CC[C@H](NC(=O)C(C)C)CC4)c3)c2c1` [Example 228, N-(trans-4-{[6-chloro-4-(5-methoxy-1H-pyrrolo[2,3-b]pyridin-3-yl)pyridin-2-yl]amino}cyclohexyl)-2-methylpropanamide], for which the Ki is < 10 nM.

As to `O=C(CN1CCN(c2ccc(F)cc2)CC1)N[C@H]1CC[C@H](Nc2cc(-c3c[nH]c4ncccc34)cc(Cl)n2)CC1` [Example 229, N-(trans-4-{[6-chloro-4-(1H-pyrrolo[2,3-b]pyridin-3-yl)pyridin-2-yl]amino}cyclohexyl)-2-[4-(4-fluorophenyl)piperazin-1-yl]acetamide], the Ki was < 10 nM.

On to `O=C(CN1CCN(c2ccncc2)CC1)N[C@H]1CC[C@H](Nc2cc(-c3c[nH]c4ncccc34)cc(Cl)n2)CC1` [Example 230, N-(trans-4-{[6-chloro-4-(1H-pyrrolo[2,3-b]pyridin-3-yl)pyridin-2-yl]amino}cyclohexyl)-2-[4-(pyridin-4-yl)piperazin-1-yl]acetamide], for which the inhibition constant (Ki) is < 10 nM.

In general, Ki refers to the dissociation constant of the complex between target and ligand, obtained from inhibition or displacement. A low value points to tighter binding.
